The values below come from US11925643B2, “Toll-like receptor 4 (TLR4) inhibitors and use thereof” (MOR RESEARCH APPLICATIONS LTD., priority 2018, dated 2024).

For the experiment, the target named is T1, TLR4 (Homo sapiens, UniProt O00206).
T1 construct: FACS analysis to test the expression of TLR4 protein by macrophages under LPS treatment; endogenous in cells; host or cells: human peripheral-blood monocytes differentiated into macrophages with M-CSF
As to the kind of experiment: FACS analysis of TLR4 expressed by macrophages exposed to LPS. It counts as cell-based. The following applies: 10 μM. The protocol: Flow cytometry is an analytical cell-biology technique that utilizes light to count and profile cells in a heterogenous fluid mixture. Flow cytometry analysis was used to evaluate binding of antibodies to TLR4 presenting cells. In this assay, an anti-TLR4 antibody was added to a monocytes suspension and cells which bound the antibody were visualized by a fluorescently labeled secondary antibody that bound to the anti-TLR4 antibody (Ab). Accordingly, samples were first “labeled” with the anti-TLR4 antibody, then incubated with Fluor® 488 conjugated to a secondary Ab for TLR4 (CD284) positive cells visualization.
In order to confirm the specificity of binding, and further in order to correct for non-specific or background staining, isotypes control mouse IgGs were added to cell suspensions at the same concentration as the anti-TLR4 Abs. To deduct the non-specific or background staining from the positive staining due to direct Ab binding to the antigen, the level of background staining was assessed by the use of the same fluorochrome as that used for staining the anti-TLR4 Ab.
Peripheral blood (30 ml) was obtained for the isolation of monocytes. Monocytes were purified by density gradient centrifugation as described above, and/or by adherence to plastic in RPMI 1640 medium supplemented with 10% fetal bovine serum (FBS) and antibiotics. Peripheral blood mononuclear cells (PBMCs) (10^6 cells/ml) were first seeded into 24-well plates (0.5 ml per well), after 2 hours, non-adherent cells were removed by several washes with warm PBS.
Monocytes freshly isolated either by density gradient centrifugation by adherence differentiated into macrophages in complete RPMI 1640 medium supplemented with human recombinant macrophage colony stimulating factor (100 ng/ml) for 6 days. To confirm macrophage cell lineage, direct immunostaining was performed with an antibody directed against CD11b/mac1 (Biolegend® Inc., San Diego, Calif., USA). Eighty percent (80%) of positive staining was observed by flow cytometry analysis. The proportion of TLR4 in this separated cell fraction was examined by FACS analysis using, as isotype control, mouse IgG2a IsoControl (eBioscience™ #53-4724-80), and mouse anti-human CD284 Alexa Fluor® 488 Clone FITA125 secondary Ab (Isotype IgG2a. eBioscience™ #53-9917-41), which recognizes the human TLR4 (also known as CD284) cell surface antigen. Cells were analyzed in a BC Gallios Flow Cytometer (Beckman Coulter, Indianapolis Ind., USA) and were initially gated on the basis of forward and side scatter characteristics. Kaluza Software was used to analyze the results. Results are expressed as mean fluorescence intensity (MFI) and also as normalized to control. […]
A general note: A flow cytometer gives signals particle by particle.

Structures are written as SMILES. Residues, ends and D or L forms follow the SMILES beside them.

T1 sequence (O00206 24-839): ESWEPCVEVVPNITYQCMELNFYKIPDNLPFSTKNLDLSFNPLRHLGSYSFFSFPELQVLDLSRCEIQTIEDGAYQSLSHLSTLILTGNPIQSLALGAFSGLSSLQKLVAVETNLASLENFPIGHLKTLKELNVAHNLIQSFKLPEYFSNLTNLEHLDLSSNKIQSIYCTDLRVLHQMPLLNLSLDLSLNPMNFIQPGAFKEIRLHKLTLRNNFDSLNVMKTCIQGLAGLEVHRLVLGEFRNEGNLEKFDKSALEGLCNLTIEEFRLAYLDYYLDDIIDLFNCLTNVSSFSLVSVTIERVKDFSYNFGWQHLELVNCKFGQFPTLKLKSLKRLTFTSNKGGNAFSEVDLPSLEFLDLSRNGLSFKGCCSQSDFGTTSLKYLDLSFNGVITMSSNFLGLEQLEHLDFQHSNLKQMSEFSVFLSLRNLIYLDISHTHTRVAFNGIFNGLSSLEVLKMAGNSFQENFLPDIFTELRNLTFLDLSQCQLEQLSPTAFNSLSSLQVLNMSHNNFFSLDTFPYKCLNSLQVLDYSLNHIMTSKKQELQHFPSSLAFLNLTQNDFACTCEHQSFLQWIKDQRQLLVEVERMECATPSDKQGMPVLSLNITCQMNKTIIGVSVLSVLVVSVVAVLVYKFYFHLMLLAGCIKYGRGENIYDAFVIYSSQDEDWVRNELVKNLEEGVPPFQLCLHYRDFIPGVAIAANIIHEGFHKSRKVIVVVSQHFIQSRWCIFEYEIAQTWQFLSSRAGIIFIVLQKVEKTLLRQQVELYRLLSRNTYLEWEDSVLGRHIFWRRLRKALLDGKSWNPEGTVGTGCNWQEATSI

On to `CC[C@H](C)[C@H](NC(C)=O)C(=O)N[C@H](C(=O)N[C@@H](Cc1ccccc1)C(=O)N[C@@H](C)C(N)=O)C(C)C` [SEQ ID NO:1, (2S,3S)-2-acetamido-N-((S)-1-(((S)-1-(((S)-1-amino-1-oxopropan-2-yl)amino)-1-oxo-3-phenylpropan-2-yl)amino)-3-methyl-1-oxobutan-2-yl)-3-methylpentanamide] (Ac-IVFA-NH2), for which, under “30 min before LPS (100 ng/ml or 20 μg/ml), 4 hours”, the TLR4 expression level entry is on record as “toward baseline levels”. Further, the “lowering the expression of TLR4 in the presence of LPS, compared with SEQ ID NO: 25” value (low and high LPS) is given as “more effective”.
